# Assay results published in patent US20240343666A1, “PERINAPHTHENONE COMPOUND AND USE THEREOF” (INSTITUTE OF MEDICINAL BIOTECHNOLOGY, CHINESE ACADEMY OF …, priority 2021, published 2024).
# Biological target: TRIM25 (Homo sapiens, UniProt Q14258)
# Type: cell-based
# Set-up: endogenous in cells
# Sequence of TRIM25 (Q14258 whole entry, species assumed): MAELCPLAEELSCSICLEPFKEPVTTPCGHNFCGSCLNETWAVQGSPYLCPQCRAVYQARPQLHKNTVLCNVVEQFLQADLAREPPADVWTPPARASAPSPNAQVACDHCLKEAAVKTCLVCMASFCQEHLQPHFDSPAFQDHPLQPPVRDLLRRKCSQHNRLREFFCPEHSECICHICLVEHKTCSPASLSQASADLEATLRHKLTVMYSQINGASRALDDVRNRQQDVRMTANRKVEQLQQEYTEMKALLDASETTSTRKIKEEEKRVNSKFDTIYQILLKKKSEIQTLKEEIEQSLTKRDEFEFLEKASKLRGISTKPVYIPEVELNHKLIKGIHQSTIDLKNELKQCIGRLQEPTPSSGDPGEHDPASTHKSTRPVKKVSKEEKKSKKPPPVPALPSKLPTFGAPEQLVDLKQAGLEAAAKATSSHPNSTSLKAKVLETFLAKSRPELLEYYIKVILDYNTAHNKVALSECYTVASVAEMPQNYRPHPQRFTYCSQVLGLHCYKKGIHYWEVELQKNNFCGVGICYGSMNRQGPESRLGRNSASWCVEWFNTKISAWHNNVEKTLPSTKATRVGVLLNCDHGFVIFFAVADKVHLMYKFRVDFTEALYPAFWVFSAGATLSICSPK
smiles,measurement,value
C/C(=C\CC/C(C)=C/C[C@]1(O)C(=O)c2c(O)cc(C)c3c(O)c(C)c(O)c(c23)C1=O)CC/C=C(\CO)CC[C@@H](O)C(C)(C)O [Compound C1],Anti-influenza activity after TRIM25 knockdown,significantly affected
same,Anti-influenza activity on overexpression of TRIM25 in TRIM25 knockout cell line,restore the anti-influenza activity of compound C1 to a normal cell level
